Test results: patent US4402975A, “Aminocarboxylic acids, amino alcohols, or the derivatives thereof, processes for production thereof, and pharmaceutical uses thereof” (Teijin Limited, priority 1980, dated 1983)
Structures can show the parent of a compound that is named as a salt.

Experiments:
serotonin ulcer = experiment: Inhibitory activity on serotonin ulcer; format: in vivo, SD-strain male rats; conditions: 30 min before serotonin 20 mg/kg s.c., rats
Experimental: Seven week-old SD-strain male rats (body weight 200 to 220 g) were fasted for 24 hours but water was provided freely, and then used in the following experiment. Each of the test compounds suspended in 0.5% CMC was administered to the rats either orally or intraperitoneally, and 30 minutes later, serotonin (serotonin creatinine sulfate) was subcutaneously administered to the rats in a dose of 20 mg/kg. Four hours later, the animals were sacrificed. The abdomen was cut open, and the stomach was taken out from each animal. 12 ml of 1% formalin was injected into the stomach to inflate it, and the stomach was further dipped for about 10 minutes in 1% formalin for fixation. Then, the stomach was cut open on the side of the lesser curvature, and spread on a glass plate. The area of ulcers generated in the glandular stomach was measured by using a solid microscope. The sum of the area of ulcer for each animal was used as the ulcer index. The ulcer inhibiting ratio of the test compound was calculated in accordance with the following equation. [formula] The control group was given 0.5% CMC and serotonin alone.

indomethacin ulcer = experiment: Inhibitory activity on indomethacin ulcer; format: in vivo, SD-strain male rats; conditions: 200 mg/kg oral, 30 min before indomethacin 20 mg/kg oral, rats
Experimental: Seven week-old SD-strain male rats (body weight 200 to 220 g) were fasted for 24 hours but water was provided freely, and then used in the following experiment.
Each of the test compounds suspended in 0.5% CMC was orally administered to the rats, and 30 minutes later, indomethacin was orally administered in a dose of 20 mg/kg. Six hours later, the animals were sacrificed. The abdomen was cut open, and the stomach was removed. 1% Evan's blue was injected in an amount of 0.5 ml/rat into the rats through the tail vein under ether anesthesia 10 minutes before sacrificing.
12 ml of a 1% formalin was injected into the stomach and the stomach was further dipped in 1% formalin for about 10 minutes for the fixation. The stomach was cut open on the side of the greater curvature, and spread on a glass plate. The lengths of ulcers generated in the glandular stomach were measured by using a solid microscope. The sum of the lengths of the ulcers for each animal was used as the ulcer index. The ulcer inhibiting ratio of the test compound was calculated in accordance with the following equation. [formula]
The control group was given 0.5% CMC and indomethacin alone.

Shay ulcer = experiment: Inhibitory activity on Shay ulcer (pylorus ligation); format: in vivo, SD-strain male rats; conditions: 300 mg/kg i.p.
Experimental: Seven week-old SD-strain male rats (body weight 200 to 220 g) were fasted for 24 hours but water was provided freely, and then used in the experiment.
The rats were anesthetized with ether. The abdomen was cut open along the median line to expose the pylorus. Then, the pylorus was ligated. After the ligation, each of the test compounds, dissolved in physiological saline, was administered intraperitoneally to the rats. The abdomen was sutured. After confirming that the animals recovered from ether anesthesia, they were kept in a wire cage while being deprived of food and water. Seventeen hours later, the animals were killed by using ether. The abdomen was again cut open, and the stomach was removed. The stomach was cut open, and the area of ulcers generated in the fundus was measured by using a solid microscope, and scored as tabulated below to obtain ulcer indices. […]
(§1) The control group was given physiological saline alone.
For the measurement of the Shay ulcer inhibiting activity, reference may be made to H. Shay, S. A. Komoroe, S. S. Fels, M. Meraze, M. Gruestein, and H. Siplet: Gastroent., 5, 43 (1945).

gastric secretion = experiment: Inhibitory activity on gastric secretion (pylorus ligation); format: in vivo, male rats; conditions: for Amount of gastric juice: 4 hours after pylorus ligation, control 6.8 ± 0.6, in ml (unit assumed); for Acidity: control 109.1 ± 1.7
Experimental: Seven week-old DS-strain male rats (body weight 200 to 220 g) were fasted for 24 hours but water was provided freely, and then used in the following experiment.
The rats were anesthetized with ether. The abdomen was cut open along the median line to expose the pylorus. Then, the pylorus was ligated. After ligation, each of the test compounds dissolved in physiological saline was intraperitoneally administered to the animals. The abdomen was sutured, and after confirming that the animals recovered from ether anesthesia, they were kept in a wire cage while being deprived of food and water. Four hours later, the animals were killed by using ether. The abdomen was again cut open, and the stomach was removed. The gastric juice was collected, and its volume and acidity was measured. The acidity of the gastric juice was determined by titrating with 0.05 N sodium hydroxide using phenolphthalein as an indicator, and calculating the amount of sodium hydroxide required to neutralize the gastric juice which is estimated as the acidity of the gastric juice.
as §1
For the method of studying the inhibitory activity on the gastiic secretion, reference may be made to H. Shay, S. A. Komoroe, S. S. Fels, M. Meraze, M. Gruestein and H. Siplet: Gastroent., 5, 43 (1945), and M. L. Anson: J. Gen, Physiol., 21, 79 (1938).

[1] = test system: blood flow in the gastric mucosa; experiment: Increasing activity on the blood flow in the dog gastric mucosa; format: in vivo, Male Beagle dogs; conditions: anesthetized dogs, cross thermocouple method
Experimental: Male Beagle dogs (10 to 15 kg) were anesthetized by intravenously administering sodium pentobarbital in a dose of 35 mg/kg, and used in the following experiment.
The blood flow in the gastric mucosa was measured by a cross thermocouple method. The abdomen was cut open along the median line to expose the stomach. A wire-type cross thermocouple element was inserted behind the mucosa on the glandular stomach. The blood flow measured by the cross thermocouple element was recorded continuously in a recorder. For the method of measuring the blood flow, reference may be made to a Japanese-language publication "Blood Flow Measurement", page 105, 1974 Igakushoin, edited by Okinaka, Hori and Honda.

plasmin = biological target: T1, plasmin (Homo sapiens, UniProt P00747); experiment: Antiplasmin activity (clot lysis time, fibrinogen/urokinase/thrombin); format: biochemical; conditions: first series, control 391.7 ± 16.1
T1 construct: fibrin clot lysis, native
T1 sequence (P00747 97-810): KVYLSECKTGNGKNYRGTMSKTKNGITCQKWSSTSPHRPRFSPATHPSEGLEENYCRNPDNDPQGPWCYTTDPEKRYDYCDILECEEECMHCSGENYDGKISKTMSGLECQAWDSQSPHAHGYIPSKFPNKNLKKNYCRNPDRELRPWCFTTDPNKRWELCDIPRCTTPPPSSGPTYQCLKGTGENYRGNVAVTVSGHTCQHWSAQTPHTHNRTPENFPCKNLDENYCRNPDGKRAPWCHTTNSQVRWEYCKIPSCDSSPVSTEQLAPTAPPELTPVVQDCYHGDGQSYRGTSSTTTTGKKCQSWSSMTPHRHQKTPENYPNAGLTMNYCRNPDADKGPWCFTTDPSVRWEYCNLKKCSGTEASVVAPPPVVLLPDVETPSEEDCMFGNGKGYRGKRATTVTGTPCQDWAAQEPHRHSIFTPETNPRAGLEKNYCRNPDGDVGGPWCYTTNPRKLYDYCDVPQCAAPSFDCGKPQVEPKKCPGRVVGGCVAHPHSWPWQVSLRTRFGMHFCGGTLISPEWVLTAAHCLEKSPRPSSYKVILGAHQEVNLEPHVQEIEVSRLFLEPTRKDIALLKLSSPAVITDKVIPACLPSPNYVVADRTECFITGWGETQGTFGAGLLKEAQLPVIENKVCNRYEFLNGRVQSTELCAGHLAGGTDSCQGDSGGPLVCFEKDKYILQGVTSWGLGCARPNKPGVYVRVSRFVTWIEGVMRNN
Experimental: Human fibrinogen was dissolved in a phosphate-buffered physiological saline (PBS) at a pH of 7.4 to prepare a 0.2% solution. Urokinase and thrombin were dissolved similarly in PBS to prepare a solution containing 120 units of urokinase and 50 units of thrombin per ml. […] Then, 0.1 ml of the urokinase-thrombin mixed solution was added, and a microchronometer was started. One minute after the starting of the microchronometer, a glass ball having a diameter of 8 mm was put on the coagulated surface, and the incubation was continued. The time which elapsed from the dissolution of the coagulated mass until the glass ball dropped onto the bottom of the test tube was measured. As a control, PBS alone was added.

Clot lysis time (plasmin; 10^-3 M): 980.0 s | Clot lysis time (plasmin; 10^-4 M): 561.2 s | Clot lysis time (plasmin; 10^-5 M): 413.9 s
SMILES: NC[C@H]1CC[C@H](C(=O)c2ccc(CCC(=O)O)cc2)CC1 [3-[p-trans-4-aminomethylcyclohexylcarbonyl)phenyl]-propionic acid hydrochloride]
Ulcer inhibiting ratio (serotonin ulcer; 30 mg/kg oral): 34.0% | Ulcer inhibiting ratio (serotonin ulcer; 100 mg/kg oral): 76.7% | Ulcer inhibiting ratio (indomethacin ulcer): 62.2% | Inhibition ratio (Shay ulcer; Shay ulcer, rats): 43.5% | Ratio of perforation (Shay ulcer; Shay ulcer, rats, control 80): 20% | Ulcer index (Shay ulcer; score 0-5 by ulcer area, 17 hours after pylorus ligation, control 4.6 ± 0.4): 2.6 ± 0.8 | Inhibition ratio (acidity) (gastric secretion; 50 mg/kg i.p.): 17.5% | Inhibition ratio (amount of gastric juice) (gastric secretion; 50 mg/kg i.p.): 41.7% | Amount of gastric juice (gastric secretion; 50 mg/kg i.p.): 4.8 ± 0.8 | Acidity (gastric secretion; 50 mg/kg i.p.): 90.0 ± 4.5 μeq./ml | Inhibition ratio (acidity) (gastric secretion; 100 mg/kg i.p.): 31.8% | Inhibition ratio (amount of gastric juice) (gastric secretion; 100 mg/kg i.p.): 54.4% | Amount of gastric juice (gastric secretion; 100 mg/kg i.p.): 3.1 ± 0.7 | Acidity (gastric secretion; 100 mg/kg i.p.): 74.1 ± 6.1 μeq./ml | Inhibition ratio (acidity) (gastric secretion; 200 mg/kg i.p.): 70.1% | Inhibition ratio (amount of gastric juice) (gastric secretion; 200 mg/kg i.p.): 89.4% | Amount of gastric juice (gastric secretion; 200 mg/kg i.p.): 0.7 ± 0.1 | Acidity (gastric secretion; 200 mg/kg i.p.): 32.6 ± 2.6 μeq./ml | Increase in the gastric mucosal blood flow ([1]; 2 mg/kg i.v.): weak increase | Increase in the gastric mucosal blood flow ([1]; 5 mg/kg i.v.): remarkable
